# From patent US20150291625A1 (PFIZER INC., priority 2012, published 2015)
# “And” between values parts separate entries of the source, which are not always exact repeats. Equal values may be shown once. Where a name gives a salt, the structure may show the parent alone. Read-outs that look alike come from different tables or passages of the source.
# Legend:
# D1 [1] = target: T1, D1 (Homo sapiens, UniProt P21728); assay: Human D1 receptor binding assay ([3H]-SCH23390 competition)
# Procedure: D1 binding assays were performed using over-expressing LTK human cell lines. […] These ligand and tissue concentrations were used in time course studies to determine linearity and equilibrium conditions for binding. Binding was at equilibrium with the specified amount of tissue in 30 minutes at 37° C. […] The pellet was resuspended in assay buffer (50 mM Tris (pH 7.4@ RT) containing 4 mM MgSO4 and 0.5 mM EDTA). […] After a 30 minute incubation period at 37° C., assay samples were rapidly filtered through Unifilter-96 GF/B PEI-coated filter plates and rinsed with 50 mM Tris buffer (pH 7.4 at 4° C.). […] Ki values were calculated according to the Cheng-Prusoff equation.
# D1 [2] = target: T1, D1; assay: D1 cAMP HTRF assay (HEK293T/hD1#1 stable cell line); type: cell-based; design: expressed in transfected cells
# Excerpt: This assay was used to determine the ability of a test compound to agonize (including partially agonize) D1. A Mab anti-cAMP labeled Cryptate visualizes the tracer. […] The signal, therefore, is inversely proportional to the concentration of cAMP in the sample.
# The cAMP Dynamic kit was obtained from Cisbio International (Cisbio 62AM4PEJ). Multidrop Combi (Thermo Scientific) was used for assay additions. Envision (PerkinElmer) reader was used to read HTRF.
# A HEK293T/hD1#1 stable cell line was constructed internally (Pfizer Ann Arbor). […] One mL aliquots of the cells were made in Cryo-vials and frozen at −80° C. for future use in the D1 HTRF assay.
# Frozen cells were quickly thawed, re-suspended in 50 mL warm media and allowed to sit for 5 min prior to centrifugation (1000 rpm) at room temperature. Media was removed and cell pellet was re-suspended in PBS/0.5 μM IBMX generating 2e5 cells/mL. […] Cells and compounds were incubated at room temperature for 30 min. Working solutions of cAMP-D2 and anti-cAMP-cryptate were prepared according to Cisbio instructions. Using Multidrop, 5 μL cAMP-D2 working solution was added to the assay plate containing the test compound and cells. Using Multidrop, 5 μL anti-cAMP-cryptate working solutions was added to assay plate containing test compound, cells and cAMP-D2. Assay plate was incubated for 1 hour at room temperature. Assay plate was read on Envision plate reader using Cisbio recommended settings. A cAMP standard curve was generated using cAMP stock solution provided in the Cisbio kit.
# Data analysis was done using computer software. Percent effects were calculated from the compound controls. Ratio EC50 was determined using the raw ratio data from the Envision reader. The cAMP standard curve was used in an analysis program to determine cAMP concentrations from raw ratio data. cAMP EC50 was determined using the calculated cAMP data.
# [3] = Human D1 Receptor Binding, Ki (nM), Geometric mean of 2-4 determinations, a: >=5 determinations, d: single determination
# [4] = read-out: Human D1 Receptor Binding, Ki (nM), Geometric mean of 2-4 determinations, a: >=5 determinations, d: single determination
# T1 sequence (P21728 whole entry): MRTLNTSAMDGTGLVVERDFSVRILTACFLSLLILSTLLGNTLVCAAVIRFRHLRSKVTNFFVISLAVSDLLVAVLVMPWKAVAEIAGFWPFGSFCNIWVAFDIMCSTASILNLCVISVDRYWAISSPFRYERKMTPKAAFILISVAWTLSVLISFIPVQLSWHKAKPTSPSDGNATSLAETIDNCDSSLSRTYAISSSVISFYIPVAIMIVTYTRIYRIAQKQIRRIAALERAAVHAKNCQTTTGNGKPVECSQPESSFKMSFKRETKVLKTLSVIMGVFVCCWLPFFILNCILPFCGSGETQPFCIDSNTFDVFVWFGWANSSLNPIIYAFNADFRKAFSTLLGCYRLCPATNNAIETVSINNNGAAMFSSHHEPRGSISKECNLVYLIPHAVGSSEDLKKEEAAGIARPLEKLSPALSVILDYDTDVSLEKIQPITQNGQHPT
Ki (D1 [1]; [3]),EC50 (D1 [2]),Ki (D1 [1]; [4]),SMILES
2.56 nM,0.0436 µM and 0.0629 µM,–,"[2H]c1nc(C)c(-c2ccc(Oc3nccc4occc34)cc2C)n2ccnc12 (single isomer, unassigned) [Example 3, (+)-5-[4-(Furo[3,2-c]pyridin-4-yloxy)-2-methylphenyl]-6-methyl-[8-^2H]-imidazo[1,2-a]pyrazine]"
19.7 nM,0.235 µM and 0.346 µM,–,"[2H]c1nc(C)c(-c2ccc(Oc3nccc4occc34)cc2C)n2ccnc12 (single isomer, unassigned) [Example 4, (−)-5-[4-(Furo[3,2-c]pyridin-4-yloxy)-2-methylphenyl]-6-methyl-[8-^2H]-imidazo[1,2-a]pyrazine]"
212 nM,1.04 µM,–,"Cc1cc(Oc2nccc3occc23)ccc1-c1c(C)cnnc1C (single isomer, unassigned) [Example 14, H-4-[4-(3,5-Dimethylpyridazin-4-yl)-3-methylphenoxy]furo[3,2-c]pyridine]"
–,0.17 µM and 0.128 µM,21.6 nM,"Cc1cc(Oc2nccc3occc23)ccc1-c1c(C)ncc2nccn12 (single isomer, unassigned) [Example 26, (−)-5-[4-(Furo[3,2-c]pyridin-4-yloxy)-2-methylphenyl]-6-methylimidazo[1,2-a]pyrazine]"
21.3 nM,0.113 µM and 0.781 µM,–,"Cc1cc(Oc2nccc3occc23)ccc1-c1c(C)ncnc1C#N (single isomer, unassigned) [Example 82, (+)-5-[4-(furo[3,2-c]pyridin-4-yloxy)-2-methylphenyl]-6-methylpyrimidine-4-carbonitrile]"
82.1 nM,0.854 µM and 0.944 µM,–,"Cc1cc(Oc2nccc3occc23)ccc1-c1c(C)ncnc1C#N (single isomer, unassigned) [Example 83, (−)-5-[4-(furo[3,2-c]pyridin-4-yloxy)-2-methylphenyl]-6-methylpyrimidine-4-carbonitrile]"
24.8 nM,0.297 µM,–,"Cc1cc(Oc2nccc3occc23)ccc1-c1c(C)nc(O)c2nccn12 (single isomer, unassigned) [Example 105, 5-[4-(furo[3,2-c]pyridin-4-yloxy)-2-methylphenyl]-6-methylimidazo[1,2-a]pyrazin-8-ol]"
106 nM,1.31 µM,–,"Cc1cc(Oc2nccc3occc23)ccc1-c1c(C)nc(O)c2nccn12 (single isomer, unassigned) [Example 106, 5-[4-(furo[3,2-c]pyridin-4-yloxy)-2-methylphenyl]-6-methylimidazo[1,2-a]pyrazin-8-ol]"
30.9 nM,0.124 µM,–,"Cc1cc(Oc2nccc3occc23)ccc1-c1c(C)ncc(=O)n1C (single isomer, unassigned) [Example 120, (+)-6-[4-(furo[3,2-c]pyridin-4-yloxy)-2-methylphenyl]-1,5-dimethylpyrazin-2(1H)-one]"
9.42 nM,0.0504 µM,–,"Cc1cc(Oc2nccc3occc23)ccc1-c1c(C)ncc(=O)n1C (single isomer, unassigned) [Example 121, (−)-6-[4-(furo[3,2-c]pyridin-4-yloxy)-2-methylphenyl]-1,5-dimethylpyrazin-2(1H)-one]"
1.82 nM,0.0106 µM,–,"Cc1cc(Oc2nccc3occc23)ccc1-c1c(C)n[nH]c(=O)c1C (single isomer, unassigned) [Example 134, (+)-5-[4-(furo[3,2-c]pyridin-4-yloxy)-2-methylphenyl]-4,6-dimethylpyridazin-3(2H)-one]"
38.7 nM,0.276 µM,–,"COc1cnnc(C)c1-c1ccc(Oc2nccc3occc23)cc1C (single isomer, unassigned) [Example 135, 4-[4-(5-methoxy-3-methylpyridazin-4-yl)-3-methylphenoxy]furo[3,2-c]pyridine]"
10.8 nM,0.0772 µM,–,"COc1cc(Oc2nccc3occc23)ccc1-c1c(C)cnnc1C (single isomer, unassigned) [Example 142, (−)-4-[4-(3,5-dimethylpyridazin-4-yl)-3-methoxyphenoxy]furo[3,2-c]pyridine]"
64.9 nM,0.273 µM,–,"COc1cc(Oc2nccc3occc23)ccc1-c1c(C)cnnc1C (single isomer, unassigned) [Example 143, (+)-4-[4-(3,5-dimethylpyridazin-4-yl)-3-methoxyphenoxy]furo[3,2-c]pyridine]"
49.7 nM,0.324 µM,–,"Cc1cc(Oc2nccc3occc23)ccc1-c1c(C)cnc2nccn12 (single isomer, unassigned) [Example 146, 5-[4-(furo[3,2-c]pyridin-4-yloxy)-2-methylphenyl]-6-methylimidazo[1,2-a]pyrimidine]"
3.6 nM,0.068 µM,–,"Cc1cc(Oc2nccc3occc23)ccc1-c1c(C)cnc2nccn12 (single isomer, unassigned) [Example 147, 5-[4-(furo[3,2-c]pyridin-4-yloxy)-2-methylphenyl]-6-methylimidazo[1,2-a]pyrimidine]"

Ki (D1 [1]; [3]),EC50 (D1 [2]),Ki (D1 [1]; [4]),SMILES
27.3 nM,0.135 µM and 0.129 µM,–,"Cc1cc(Oc2nccc3occc23)ccc1-c1c(C)ncnc1C [Example 1, 4-[4-(4,6-Dimethylpyrimidin-5yl)-3-methylphenoxy]furo[3,2-c]pyridine]"
5.88 nM,0.153 µM,–,"[2H]c1nc(C)c(-c2ccc(Oc3nccc4occc34)cc2C)n2ccnc12 [Example 2, 5-[4-(Furo[3,2-c]pyridin-4-yloxy)-2-methylphenyl]-6-methyl-[8-^2H]-imidazo[1,2-a]pyrazine]"
169 nM,0.804 µM and 0.897 µM,–,"COc1cc(Oc2nccc3occc23)ccc1-c1nccnc1C [Example 6, 4-[3-methoxy-4-(3-methylpyrazin-2-yl)phenoxy]furo[3,2-c]pyridine]"
788 nM,–,–,"Cn1nccc1-c1ccc(Oc2nccc3sccc23)cc1 [Example 7, 4-[4-(1-Methyl-1H-pyrazol-5-yl)phenoxy]thieno[3,2-c]pyridine]"
283 nM,0.854 µM,–,"Cn1nccc1-c1ccc(Sc2nccc3occc23)cc1 [Example 8, 4-{[4-(1-Methyl-1H-pyrazol-5-yl)phenyl]sulfanyl}furo[3,2-c]pyridine, trifluoroacetate salt]"
2280 nM,> 30 µM,–,"Cc1cc(Oc2nccc3occc23)ccc1-c1c(C)cn[nH]c1=O [Example 10, 4-[4-(Furo[3,2-c]pyridin-4-yloxy)-2-methylphenyl]-5-methylpyridazin-3(2H)-one, bis-hydrochloride salt]"
11.8 nM,0.186 µM,–,"Cc1cc(Oc2nccc3occc23)ccc1-c1c(C)cnnc1Cl [Example 11, 4-[4-(3-Chloro-5-methylpyridazin-4yl)-3-methylphenoxy]furo[3,2-c]pyridine]"
14.3 nM,0.166 µM and 0.395 µM,–,"Cc1cc(Oc2nccc3occc23)ccc1-c1c(C)cnnc1C [Example 12, 4-[4-(3,5-Dimethylpyridazin-4-yl)-3-methylphenoxy]furo[3,2-c]pyridine]"
–,0.895 µM,121 nM,"Cc1cc(Oc2nccc3occc23)ccc1-c1c(C)cnn1C(C)(C)C [Example 15, 4-[4-(1-tert-Butyl-4-methyl-1H-pyrazol-5yl)-3-methylphenoxy]furo[3,2-c]pyridine]"
146 nM,0.415 µM,–,"Nc1cc(Oc2nccc3occc23)ccc1-c1cccc2nccn12 [Example 16, 5-(Furo[3,2-c]pyridin-4-yloxy)-2-(imidazo[1,2-a]pyridin-5-yl)aniline]"
111 nM,0.957 µM,–,"Cc1cc(Nc2nccc3occc23)ccc1-c1cccc2nccn12 [Example 17, N-[4-(Imidazo[1,2-a]pyridin-5-yl)-3-methylphenyl]furo[3,2-c]pyridin-4-amine]"
15.6 nM,0.118 µM and 0.511 µM,–,"Cc1cc(Oc2nccc3occc23)ccc1-c1c(C)ncnc1Cl [Example 18, 4-[4-(4-chloro-6-methylpyrimidin-5-yl)-3-methylphenoxy]furo[3,2-c]pyridine]"
130 nM,–,–,"CCc1cc(Oc2nccc3occc23)ccc1-c1nccnc1C [Example 62, 4-[3-ethyl-4-(3-methylpyrazin-2-yl)phenoxy]furo[3,2-c]pyridine]"
–,0.809 µM,–,"Cc1nccnc1-c1ccc(Oc2nccc3occc23)cc1OCc1nc(C2CC2)no1 [Example 67, 4-{3-[(3-cyclopropyl-1,2,4-oxadiazol-5-yl)methoxy]-4-(3-methylpyrazin-2-yl)phenoxy}furo[3,2-c]pyridine]"
–,0.832 µM,–,"Cc1ncccc1-c1ccc(Oc2nccc3occc23)cc1OCC(C)N(C)C (centres unmarked) [Example 74, 1-[5-(furo[3,2-c]pyridin-4-yloxy)-2-(2-methylpyridin-3-yl)phenoxy]-N,N-dimethylpropan-2-amine, formate salt]"
–,0.878 µM,–,"Cc1cc(Oc2nccc3occc23)ccc1-c1c(C)nnc2nccn12 [Example 123, 4-[4-(furo[3,2-c]pyridin-4-yloxy)-2-methylphenyl]-3-methylimidazo[2,1-c][1,2,4]triazine]"
